Where a SMILES comes first, the peptide text is derived from it. [ ]: non-standard residue; d: D form. The star is where a group is joined. Nva = CCC[C@H](N)C(=O)O; Cbz = O=C(OCc1ccccc1)*
Columns and labels:
HIF-1α protein = conditions: recent studies (literature); cited from earlier work
hypoxic cells = conditions: cited from earlier work
[1] = cited from earlier work
HIF-1α = format: cell-based, human
[2] = tested on: deubiquitinase enzyme activity (HT-29 cell lysate) on polyubiquitinated HIF-1α; format: biochemical, human

C=CCNC1=C2C[C@@H](C)C[C@H](OC)[C@H](O)[C@@H](C)/C=C(\C)[C@H](OC(N)=O)[C@@H](OC)/C=C\C=C(/C)C(=O)NC(=CC1=O)C2=O [17-AAG, 17-allylamino-17-desmethoxygeldanamycin]
HIF-1α protein in cell-lines lacking pVHL (HIF-1α protein): promote the loss of HIF-1α protein

O=C(O)CCCc1ccc(N(CCCl)OCCCl)cc1 [CHL-HD]
Toxicity with reducing enzymes under hypoxia (hypoxic cells): greater toxicity
In vivo toxicity [1]: minimal in vivo toxicity

C[C@@H]1C[C@@H]([C@H](O)CC2CC(=O)NC(=O)C2)C(=O)[C@@H](C)C1 [Cycloheximide, cycloheximide]
Ubiquitination of HIF-1α with proteasome inhibited (HIF-1α): no affect

CCC[C@@H](C=O)NC(=O)[C@H](CC(C)C)NC(=O)[C@H](CC(C)C)NC(=O)OCc1ccccc1 [LLnV, N-carbobenzoxy-Leu-Leu-norvalinal] (Cbz-Leu-Leu-[Nva]-aldehyde)
Deubiquitination of HIF-1α in vitro [2]: did not affect

Source: patent US20050049309A1, “Regulation of HIF protein levels via deubiquitination pathway” (priority 2003, published 2005)
